One assay concerns the target T1, HiBit-BRM fusion protein (Homo sapiens, UniProt P51531).
T1 construct: expressed in transfected cells
Put plainly: HiBiT-BRM cell-based degradation assay (Nano-Glo HiBiT Lytic Detection, 24 h). Conditions: HeLa cell line expressing HiBiT-BRM; for DC50: read-out: BRM HiBit Degradation IC50. In outline:
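Luminescence from reconstituted NanoBiT luciferase in lysed HeLa HiBiT-BRM cells served as the measure of remaining BRM after 24 h treatment. Compounds were tested from 30 μM final downward in 3-fold steps. DMSO and 2 μM of a standard BRM/BRG1 degrader defined the scale limits.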

For assay [1], the target named is T2, HiBit-BRG1 fusion protein (Homo sapiens, UniProt P51532).
T2 construct: expressed in transfected cells
T2 sequence (P51532 whole entry, the tested form may be a part): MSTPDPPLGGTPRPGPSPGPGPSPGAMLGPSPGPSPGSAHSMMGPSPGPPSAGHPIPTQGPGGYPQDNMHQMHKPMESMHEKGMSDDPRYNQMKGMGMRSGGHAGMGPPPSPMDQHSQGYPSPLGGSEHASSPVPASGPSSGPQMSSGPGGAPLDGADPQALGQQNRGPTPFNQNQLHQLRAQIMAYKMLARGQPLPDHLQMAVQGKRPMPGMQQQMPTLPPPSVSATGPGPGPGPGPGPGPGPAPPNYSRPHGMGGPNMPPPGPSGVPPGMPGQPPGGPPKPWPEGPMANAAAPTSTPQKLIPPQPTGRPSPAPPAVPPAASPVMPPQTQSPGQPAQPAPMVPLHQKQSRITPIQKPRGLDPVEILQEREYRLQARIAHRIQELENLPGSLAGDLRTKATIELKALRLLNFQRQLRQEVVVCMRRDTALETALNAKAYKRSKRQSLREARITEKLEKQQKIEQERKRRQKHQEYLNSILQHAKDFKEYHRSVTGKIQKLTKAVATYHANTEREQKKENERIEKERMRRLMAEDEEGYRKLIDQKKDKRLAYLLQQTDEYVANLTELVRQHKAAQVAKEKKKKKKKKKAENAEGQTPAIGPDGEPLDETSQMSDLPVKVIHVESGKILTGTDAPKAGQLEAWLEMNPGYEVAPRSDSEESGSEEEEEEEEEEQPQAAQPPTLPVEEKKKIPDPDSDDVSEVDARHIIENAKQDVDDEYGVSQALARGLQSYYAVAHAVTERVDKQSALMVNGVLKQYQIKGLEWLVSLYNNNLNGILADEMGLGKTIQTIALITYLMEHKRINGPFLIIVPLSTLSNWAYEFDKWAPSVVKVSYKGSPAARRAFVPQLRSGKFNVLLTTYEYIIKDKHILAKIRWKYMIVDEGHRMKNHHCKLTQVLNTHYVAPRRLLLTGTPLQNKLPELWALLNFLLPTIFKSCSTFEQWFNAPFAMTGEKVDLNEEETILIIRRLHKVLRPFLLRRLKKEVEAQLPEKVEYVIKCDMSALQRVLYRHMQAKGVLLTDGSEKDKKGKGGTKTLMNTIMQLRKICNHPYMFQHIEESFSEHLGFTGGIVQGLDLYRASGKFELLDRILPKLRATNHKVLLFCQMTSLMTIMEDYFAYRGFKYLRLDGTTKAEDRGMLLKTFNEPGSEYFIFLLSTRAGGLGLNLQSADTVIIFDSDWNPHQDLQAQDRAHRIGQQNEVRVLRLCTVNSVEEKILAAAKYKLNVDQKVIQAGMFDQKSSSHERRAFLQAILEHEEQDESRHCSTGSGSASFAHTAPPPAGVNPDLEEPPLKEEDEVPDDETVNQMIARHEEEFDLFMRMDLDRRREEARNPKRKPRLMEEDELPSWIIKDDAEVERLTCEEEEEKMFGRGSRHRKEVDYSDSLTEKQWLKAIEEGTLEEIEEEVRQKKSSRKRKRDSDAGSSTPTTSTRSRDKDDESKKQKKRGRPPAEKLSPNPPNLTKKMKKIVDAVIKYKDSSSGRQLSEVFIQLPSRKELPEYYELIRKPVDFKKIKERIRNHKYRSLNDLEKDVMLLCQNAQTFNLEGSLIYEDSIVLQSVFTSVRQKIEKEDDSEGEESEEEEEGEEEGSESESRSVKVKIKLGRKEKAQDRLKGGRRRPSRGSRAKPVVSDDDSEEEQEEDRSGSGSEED
Put plainly: HiBiT-BRG1 cell-based degradation assay (Nano-Glo HiBiT Lytic Detection, 24 h). As to conditions: HeLa cell line expressing HiBit-BRG1 and LgBit; for Dmax: read-out: BRG1 HiBit Degradation Maximum (%); for DC50: read-out: BRMG1 HiBit Degradation IC50. The method in brief: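 Luminescence from reconstituted NanoBiT luciferase after lytic detection served as read-out of remaining HiBit-BRG1 in stable HeLa cells, which also express LgBit. Cells were seeded at 5000 per well and incubated with compound for 24 h. DMSO and a 2 μM known degrader defined the control range.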
(In general: The HiBiT peptide binds its large partner to form an active luciferase.)

T1 sequence (P51531 whole entry, the tested form may be a part): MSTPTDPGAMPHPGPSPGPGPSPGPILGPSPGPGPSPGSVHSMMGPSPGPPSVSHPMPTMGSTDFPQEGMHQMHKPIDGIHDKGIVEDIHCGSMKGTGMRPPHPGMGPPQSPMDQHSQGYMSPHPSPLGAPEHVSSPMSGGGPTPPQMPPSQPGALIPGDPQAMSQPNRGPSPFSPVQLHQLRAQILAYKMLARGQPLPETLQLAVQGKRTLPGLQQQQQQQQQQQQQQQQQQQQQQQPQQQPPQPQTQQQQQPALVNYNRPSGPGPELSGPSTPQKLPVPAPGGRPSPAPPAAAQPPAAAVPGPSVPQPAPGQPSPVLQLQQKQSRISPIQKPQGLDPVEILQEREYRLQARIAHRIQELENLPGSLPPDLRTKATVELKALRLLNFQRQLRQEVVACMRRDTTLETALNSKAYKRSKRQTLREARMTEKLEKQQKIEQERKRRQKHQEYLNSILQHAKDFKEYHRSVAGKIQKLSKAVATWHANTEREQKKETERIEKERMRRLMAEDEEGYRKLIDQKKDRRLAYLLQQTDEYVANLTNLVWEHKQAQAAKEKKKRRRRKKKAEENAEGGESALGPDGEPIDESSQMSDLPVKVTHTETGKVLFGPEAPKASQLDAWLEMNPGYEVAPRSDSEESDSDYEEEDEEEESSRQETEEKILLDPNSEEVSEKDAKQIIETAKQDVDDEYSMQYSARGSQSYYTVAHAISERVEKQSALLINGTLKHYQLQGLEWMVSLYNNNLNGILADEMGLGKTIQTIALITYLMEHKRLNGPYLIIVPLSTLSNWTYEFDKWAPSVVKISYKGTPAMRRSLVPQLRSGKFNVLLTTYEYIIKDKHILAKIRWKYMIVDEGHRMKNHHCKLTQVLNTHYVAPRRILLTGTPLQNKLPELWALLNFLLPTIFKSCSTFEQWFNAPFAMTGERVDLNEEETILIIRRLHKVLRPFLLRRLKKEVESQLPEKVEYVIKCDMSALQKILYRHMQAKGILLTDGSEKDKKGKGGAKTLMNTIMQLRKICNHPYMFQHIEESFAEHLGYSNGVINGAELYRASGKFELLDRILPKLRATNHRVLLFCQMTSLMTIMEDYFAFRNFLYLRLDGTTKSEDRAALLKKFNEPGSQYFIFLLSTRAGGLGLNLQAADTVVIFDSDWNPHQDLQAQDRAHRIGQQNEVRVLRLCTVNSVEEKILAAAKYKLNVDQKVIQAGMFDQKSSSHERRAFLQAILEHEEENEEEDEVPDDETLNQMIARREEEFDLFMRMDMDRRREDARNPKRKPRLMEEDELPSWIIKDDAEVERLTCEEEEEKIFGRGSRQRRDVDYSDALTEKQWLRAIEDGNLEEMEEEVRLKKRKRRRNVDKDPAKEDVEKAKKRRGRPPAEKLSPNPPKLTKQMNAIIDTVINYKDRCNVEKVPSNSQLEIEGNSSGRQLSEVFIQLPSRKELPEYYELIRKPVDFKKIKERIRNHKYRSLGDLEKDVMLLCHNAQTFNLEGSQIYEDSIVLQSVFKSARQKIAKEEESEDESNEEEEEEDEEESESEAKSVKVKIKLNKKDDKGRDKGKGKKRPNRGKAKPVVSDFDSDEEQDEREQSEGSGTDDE

`Cc1ncsc1-c1ccc(CNC(=O)[C@@H]2C[C@@H](O)CN2C(=O)[C@@H](NC(=O)CCCCCCCCCCCCCCC(=O)N2CC(c3cc4cc(-c5ccccc5O)nnc4[nH]3)C2)C(C)(C)C)cc1` [Compound 21, (2S,4R)-4-hydroxy-1-((S)-2-(16-(3-(3-(2-hydroxyphenyl)-7H-pyrrolo[2,3-c]pyridazin-6-yl)azetidin-1-yl)-16-oxohexadecanamido)-3,3-dimethylbutanoyl)-N-(4-(4-methylthiazol-5-yl)benzyl)pyrrolidine-2-carboxamide]: on HiBit-BRM fusion protein, the “BRM HiBit Degradation Maximum (%)” value is reported as “C (“C” indicates maximum degradation < 50%)”. Also, the Dmax in assay [1] is less than 50%.
The like results for `O=C1CCC(N2C(=O)c3cccc(OCCCCCCC(=O)N4CC(c5cc6cc(-c7ccccc7O)nnc6[nH]5)C4)c3C2=O)C(=O)N1` (stereo not drawn) [Compound 31, 2-(2,6-dioxopiperidin-3-yl)-4-((7-(3-(3-(2-hydroxyphenyl)-7H-pyrrolo[2,3-c]pyridazin-6-yl)azetidin-1-yl)-7-oxoheptyl)oxy)isoindoline-1,3-dione] were, in that order, “C (“C” indicates maximum degradation < 50%)” and less than 50%.
As for `Cc1ncsc1-c1ccc([C@H](C)NC(=O)[C@@H]2C[C@@H](O)CN2C(=O)[C@@H](c2cc(N3CCC(CN(C)[C@H]4CCc5[nH]c6nnc(-c7ccccc7O)cc6c5C4)CC3)no2)C(C)C)cc1` [Compound 107, (2S,4R)-4-hydroxy-1-((R)-2-(3-(4-((((S)-3-(2-hydroxyphenyl)-6,7,8,9-tetrahydro-5H-pyridazino[3,4-b]indol-6-yl)(methyl)amino)methyl)piperidin-1-yl)isoxazol-5-yl)-3-methylbutanoyl)-N-((S)-1-(4-(4-methylthiazol-5-yl)phenyl)ethyl)pyrrolidine-2-carboxamide], at HiBit-BRM fusion protein, the “BRM HiBit Degradation Maximum (%)” value is “A (“A” indicates maximum degradation ≥ 75%)” and the DC50 was greater than 10 nM. In assay [1], the Dmax is greater than 75% and the DC50 was greater than 10 nM.
Take `Cc1ncsc1-c1ccc([C@H](C)NC(=O)[C@@H]2C[C@@H](O)CN2C(=O)[C@@H](c2cc(-c3cnc(N4CCc5[nH]c6nnc(-c7ccccc7O)cc6c5C4)nc3)no2)C(C)C)cc1` (single isomer, unassigned) [Compound 85]: on HiBit-BRM fusion protein, the “BRM HiBit Degradation Maximum (%)” value is “A (“A” indicates maximum degradation ≥ 75%)” and the DC50 is greater than 10 nM. Besides, in assay [1], the Dmax is greater than 75% and the DC50 is greater than 100 nM.
Regarding `Cc1ncsc1-c1ccc([C@H](C)NC(=O)[C@@H]2C[C@@H](O)CN2C(=O)[C@@H](c2cc(C3CCN(C(=O)[C@]4(N)CCc5[nH]c6nnc(-c7ccccc7O)cc6c5C4)CC3)no2)C(C)C)cc1` (relative stereo) [Compound 104, (2S,4R)-1-[(2R)-2-(3-{1-[(6R*)-6-amino-3-(2-hydroxyphenyl)-5H,7H,8H,9H-pyridazino[3,4-blindole-6-carbonyl]piperidin-4-yl}-1,2-oxazol-5-yl)-3-methylbutanoyl]-4-hydroxy-N-[(1S)-1-[4-(4-methyl-1,3-thiazol-5-yl)phenyl]ethyl]pyrrolidine-2-carboxamide], at HiBit-BRM fusion protein, the “BRM HiBit Degradation Maximum (%)” value is given as “B (“B” indicates maximum degradation ≥ 50%)” and the DC50 is greater than 100 nM. In assay [1], the Dmax was less than 50%.
For `O=C1CCC(N2C(=O)c3ccc(OCCOCCOCCC(=O)N4CC(c5cc6cc(-c7ccccc7O)nnc6[nH]5)C4)cc3C2=O)C(=O)N1` (stereo not drawn) [Compound 24, 2-(2,6-dioxopiperidin-3-yl)-5-(2-(2-(3-(3-(3-(2-hydroxyphenyl)-7H-pyrrolo[2,3-c]pyridazin-6-yl)azetidin-1-yl)-3-oxopropoxy)ethoxy)ethoxy)isoindoline-1,3-dione], the “BRM HiBit Degradation Maximum (%)” value on HiBit-BRM fusion protein is on record as “C (“C” indicates maximum degradation < 50%)”. Moreover, the Dmax in assay [1] was less than 50%.
The like results for `Cc1ncsc1-c1ccc(CNC(=O)[C@@H]2C[C@@H](O)CN2C(=O)[C@@H](NC(=O)CCCC(=O)N2CC(c3c[nH]c4nnc(-c5ccccc5O)cc34)C2)C(C)(C)C)cc1` [Compound 40, (2S,4R)-4-hydroxy-1-((S)-2-(5-(3-(3-(2-hydroxyphenyl)-7H-pyrrolo[2,3-c]pyridazin-5-yl)azetidin-1-yl)-5-oxopentanamido)-3,3-dimethylbutanoyl)-N-(4-(4-methylthiazol-5-yl)benzyl)pyrrolidine-2-carboxamide] were, in that order, “C (“C” indicates maximum degradation < 50%)” and less than 50%.
Regarding `Cc1ncsc1-c1ccc([C@H](C)NC(=O)[C@@H]2C[C@@H](O)CN2C(=O)[C@H](c2cc([C@H]3CC[C@H](c4cnc(N5CCC(c6c[nH]c7nnc(-c8ccccc8O)cc67)CC5)nc4)CC3)no2)C(C)C)cc1` [Compound 310, (2S,4R)-4-hydroxy-N-[(1S)-1-[4-(4-methyl-1,3-thiazol-5-yl)phenyl]ethyl]-1-[(2S)-3-methyl-2-{3-[(1r,4r)-4-(2-{4-[3-(2-hydroxyphenyl)-7H-pyrrolo[2,3-c]pyridazin-5-yl]piperidin-1-yl}pyrimidin-5-yl)cyclohexyl]-1,2-oxazol-5-yl}butanoyl]pyrrolidine-2-carboxamide], on HiBit-BRM fusion protein, the “BRM HiBit Degradation Maximum (%)” value was “A (“A” indicates maximum degradation ≥ 75%)” and the DC50 is greater than 10 nM. Moreover, in assay [1], the Dmax was greater than 50% and the DC50 is greater than 100 nM.
`Cc1ncsc1-c1ccc([C@H](C)NC(=O)[C@@H]2C[C@@H](O)CN2C(=O)[C@@H](c2cc(N3CCN(C(=O)[C@H]4C[C@@]5(Cc6cc(-c7ccccc7O)nnc6N5)C4)CC3)no2)C(C)C)cc1` (racemic) [Compound 80, (2S,4R)-4-hydroxy-1-((R)-2-(3-(4-((1R,3s)-3′-(2-hydroxyphenyl)-5′,7′-dihydrospiro[cyclobutane-1,6′-pyrrolo[2,3-c]pyridazine]-3-carbonyl)piperazin-1-yl)isoxazol-5-yl)-3-methylbutanoyl)-N-((S)-1-(4-(4-methylthiazol-5-yl)phenyl)ethyl)pyrrolidine-2-carboxamide]: on HiBit-BRM fusion protein, the “BRM HiBit Degradation Maximum (%)” value is on record as “A (“A” indicates maximum degradation ≥ 75%)” and the DC50 is greater than 10 nM. Also, the Dmax in assay [1] was less than 50%.
`O=C1CCC(N2C(=O)c3cccc(OCCCC(=O)N4CC(c5cc6cc(-c7ccccc7O)nnc6[nH]5)C4)c3C2=O)C(=O)N1` (stereo not drawn) [Compound 8, 2-(2,6-dioxopiperidin-3-yl)-4-(4-(3-(3-(2-hydroxyphenyl)-7H-pyrrolo[2,3-c]pyridazin-6-yl)azetidin-1-yl)-4-oxobutoxy)isoindoline-1,3-dione]: at HiBit-BRM fusion protein, the “BRM HiBit Degradation Maximum (%)” value is “A (“A” indicates maximum degradation ≥ 75%)” and the DC50 was greater than 1000 nM. In assay [1], the Dmax is greater than 75% and the DC50 is greater than 1000 nM.
For the compound `Cc1ncsc1-c1ccc([C@H](C)NC(=O)[C@@H]2C[C@@H](O)CN2C(=O)[C@@H](c2cc(N3CCC(CN4CCc5[nH]c6nnc(-c7ccccc7O)cc6c5[C@@H]4C)CC3)no2)C(C)C)cc1` (racemic) [Compound 83, (2S,4R)-4-hydroxy-1-[(2R)-2-[3-(4-{[(3S)-12-(2-hydroxyphenyl)-3-methyl-4,8,10,11-tetraazatricyclo[7.4.0.0^{2,7}]trideca-1(13),2(7),9,11-tetraen-4-yl]methyl}piperidin-1-yl)-1,2-oxazol-5-yl]-3-methylbutanoyl]-N-[(1S)-1-[4-(4-methyl-1,3-thiazol-5-yl)phenyl]ethyl]pyrrolidine-2-carboxamide], at HiBit-BRM fusion protein, the “BRM HiBit Degradation Maximum (%)” value is reported as “A (“A” indicates maximum degradation ≥ 75%)” and the DC50 is greater than 10 nM. Besides, in assay [1], the Dmax was greater than 75% and the DC50 is greater than 10 nM.
Take `Cc1ncsc1-c1ccc([C@H](C)NC(=O)[C@@H]2C[C@@H](O)CN2C(=O)[C@@H](c2cc(N3CCC(CN4CCc5[nH]c6nnc(-c7ccccc7O)cc6c5C4)CC3)no2)C(C)C)cc1` (racemic) [Compound 193, (2S,4R)-4-hydroxy-1-((R)-2-(3-(4-((3-(2-hydroxyphenyl)-5,7,8,9-tetrahydro-6H-pyrido [3′,4′:4,5]pyrrolo[2,3-c]pyridazin-6-yl)methyl)piperidin-1-yl)isoxazol-5-yl)-3-methylbutanoyl)-N-((S)-1-(4-(4-methylthiazol-5-yl)phenyl)ethyl)pyrrolidine-2-carboxamide]: on HiBit-BRM fusion protein, the “BRM HiBit Degradation Maximum (%)” value is “A (“A” indicates maximum degradation ≥ 75%)” and the DC50 was greater than 10 nM. In assay [1], the Dmax is greater than 50% and the DC50 was greater than 100 nM.
For `Cc1ncsc1-c1ccc([C@H](C)NC(=O)[C@@H]2C[C@@H](O)CN2C(=O)[C@@H](c2cc(N3CC(CN4CC(c5cc6cc(-c7ccccc7O)nnc6[nH]5)C4)C3)no2)C(C)C)cc1` (single isomer, unassigned) [Compound 163], at HiBit-BRM fusion protein, the “BRM HiBit Degradation Maximum (%)” value is “A (“A” indicates maximum degradation ≥ 75%)” and the DC50 was greater than 10 nM. Moreover, in assay [1], the Dmax is greater than 50% and the DC50 was greater than 100 nM.
Regarding `Cc1ncsc1-c1ccc([C@H](C)NC(=O)[C@@H]2C[C@@H](O)CN2C(=O)[C@@H](c2cc(OCCN3CC(c4c(C)[nH]c5nnc(-c6ccccc6O)cc45)C3)no2)C(C)C)cc1` (racemic) [Compound 254, (2S,4R)-4-hydroxy-1-((R)-2-(3-(2-(3-(3-(2-hydroxyphenyl)-6-methyl-7H-pyrrolo[2,3-c]pyridazin-5-yl)azetidin-1-yl)ethoxy)isoxazol-5-yl)-3-methylbutanoyl)-N-((S)-1-(4-(4-methylthiazol-5-yl)phenyl)ethyl)pyrrolidine-2-carboxamide], on HiBit-BRM fusion protein, the “BRM HiBit Degradation Maximum (%)” value is recorded as “A (“A” indicates maximum degradation ≥ 75%)” and the DC50 is greater than 10 nM. Moreover, the Dmax in assay [1] is less than 50%.

These data come from patent US20240024488A1, “COMPOUNDS AND USES THEREOF” (Foghorn Therapeutics Inc., priority 2020, published 2024).
